Literature values in patent US20200069758A1, “COMPOSITION FOR USE IN THE PREVENTIVE AND/OR CURATIVE TREATMENT OF NON-ALCOHOLIC FATTY LIVER DISEASE” (NORMAPHAR SA, priority 2018, published 2020).

Settings: background art statement; for complications / mortality on administration: long-term or high-dose administration

Compound	reduction of non-alcoholic fatty liver disease (simple fatty liver disease, NASH)	complications / mortality on administration
Vitamin E	reductions were observed in the inflammation and non-alcoholic fatty liver disease	increases all-cause mortality
CCc1ccc(CCOc2ccc(CC3SC(=O)NC3=O)cc2)nc1 (stereo not shown) [pioglitazone]	–	heart failure, osteoporosis and weight gain
CN(C)C(=N)N=C(N)N [metformin]	failed to significantly reduce	–
